Patent US20250320227A1, “MACROCYCLIC OREXIN RECEPTOR AGONISTS AND USES THEREOF” (Jazz Pharmaceuticals Ireland Limited, priority 2022, published 2025)
Where two headings read alike, the source gives them in different places.

How the values were obtained:
[1] = molecular target: T1, human recombinant OX2 (hOX2) receptors expressed in CHO cells (Homo sapiens, UniProt O43614); assay: IP-1 accumulation assay (IP-One HTRF) in hOX2-CHO cells; format: cell-based; details: 60 min incubation at 37° C., mean of at least two independent experiments, read-out: EC50_OX2R Category
T1 construct: host or cells: CHO cells (hOX2-CHO)
T1 sequence (O43614 1-444): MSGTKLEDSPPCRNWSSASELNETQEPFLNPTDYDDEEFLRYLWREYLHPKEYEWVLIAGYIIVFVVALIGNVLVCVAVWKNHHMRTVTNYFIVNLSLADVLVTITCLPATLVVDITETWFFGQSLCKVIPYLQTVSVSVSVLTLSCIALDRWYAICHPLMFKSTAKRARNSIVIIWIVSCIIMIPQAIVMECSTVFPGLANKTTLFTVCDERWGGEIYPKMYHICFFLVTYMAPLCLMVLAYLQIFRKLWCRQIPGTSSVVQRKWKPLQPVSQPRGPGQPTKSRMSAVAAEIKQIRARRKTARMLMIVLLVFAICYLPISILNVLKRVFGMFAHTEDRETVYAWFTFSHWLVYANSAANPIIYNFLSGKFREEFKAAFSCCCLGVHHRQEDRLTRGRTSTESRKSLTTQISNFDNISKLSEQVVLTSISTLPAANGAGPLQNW
How it was run: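 CHO cells in suspension in HBSS/20 mM HEPES pH 7.4 with 50 mM LiCl and 0.1% BSA, given compound (11-point series, 0.5% DMSO) for 60 min at 37 °C. IP-1 read by HTRF ratio, scaled to maximal OX-A response; EC50 from four-parameter fit, mean of ≥2 experiments.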

CC1COc2ccccc2[C@H]2CC[C@H](CC2)OC[C@@H]2N(CC[C@@]23COCC(=O)N3)C1=O (relative stereo) [Example 5c, (1′s,3R,10′R,16′S,19′s)-10′-methyl-8′,18′-dioxa-12′-azaspiro[morpholine-3,15′-tetracyclo[17.2.2.0^2,70.0^12,16]tricosane]-2′(7′),3′,5′-triene-5,11′-dione and (1′s,3S, 10′S,16′R,19′s)-10′-methyl-8′,18′-dioxa-12′-azaspiro[morpholine-3,15′-tetracyclo[17.2.2.0^2,70.0^12,16]tricosane]-2′(7′), 3′,5′-triene-5,11′-dione]
EC50 [1]: 100 to 1000 nM | ring closure, yield of all isomers (from CC(COc1ccccc1[C@H]1CC[C@@H](OC[C@@H]2NCC[C@@]23COCC(=O)N3)CC1)C(=O)O, amide bond, HATU/DIPEA, acetonitrile, 3.68 mM, 3.0 h): 9.4%

C[C@@H]1C[C@@]2(COCC(=O)N2)[C@@H]2CO[C@H]3CC[C@H](CC3)c3cccc(F)c3OCCC(=O)N12 (single isomer, unassigned) [Example 24a]
EC50 [1]: < 100 nM | ring closure, yield of all isomers (from C[C@@H]1CC2(COCC(=O)N2)C(CO[C@H]2CC[C@@H](c3cccc(F)c3OCCC(=O)O)CC2)N1, amide bond, HATU, DIPEA, acetonitrile, 12.2 mM, 3.0 h): 37.1%

Cc1ccnc2c1[C@H]1CC[C@H](CC1)OCC1N(CCCC13COCC(=O)N3)C(=O)CO2 (stereo partly shown) [Example 77, (1′s,19′s)-3′-methyl-8′,18′-dioxa-6′,11′-diazaspiro[morpholine-3,15′-tetracyclo[17.2.2.0^2,70.0^11,16]tricosane]-2′,4′,6′-triene-5,10′-dione]
EC50 [1]: < 100 nM | ring closure, yield of all isomers (from Cc1ccnc(O)c1[C@H]1CC[C@@H](OCC2N(C(=O)CCl)CCCC23COCC(=O)N3)CC1, ether bond, K2CO3, acetonitrile, 2.06 mM, 90.0 °C, 12.0 h): 9.4%

C[C@@H]1C[C@@]2(COCC(=O)N2)[C@@H]2CO[C@H]3CC[C@H](CC3)c3c(F)cccc3OCC(=O)N12 (single isomer, unassigned) [Example 17a]
EC50 [1]: < 100 nM | ring closure, yield of all isomers (from C[C@@H]1CC2(COCC(=O)N2)C(CO[C@H]2CC[C@@H](c3c(F)cccc3OCC(=O)O)CC2)N1, amide bond, HATU, DIPEA, acetonitrile, 19.2 mM, 3.0 h): 9%

O=C1COC[C@@]2(CCN3C(=O)CCOc4ccccc4[C@H]4CC[C@H](CC4)OC[C@H]32)N1 (relative stereo)
ring closure, yield of all isomers (from O=C(O)CCOc1ccccc1[C@H]1CC[C@@H](OC[C@@H]2NCC[C@@]23COCC(=O)N3)CC1, amide bond, HATU/DIPEA, acetonitrile, 1.97 mM, 3.0 h): 92.6%

C[C@@H]1CC2(COCC(=O)N2)C2Cc3cccc(c3F)-c3ccccc3OCCC(=O)N21 (mixture of isomers) [Example 26, (13′R)-22′-fluoro-13′-methyl-8′-oxa-12′-azaspiro[morpholine-3,15′-tetracyclo[16.3.1.0^2,70.0^12,16]docosane]-1′(22′),2′(7′),3′,5′,18′,20′-hexaene-5,11′-dione]
EC50 [1]: 1000 to 10000 nM | ring closure, yield of all isomers (from C[C@@H]1CC2(COCC(=O)N2)C(Cc2cccc(-c3ccccc3OCCC(=O)O)c2F)N1, amide bond, HATU, DIPEA, acetonitrile, 0.84 mM, 25.0 °C, 2.5 h): 2.4%

C[C@@H]1CC2(COCC(=O)N2)C2Cc3cccc(c3F)-c3ccccc3OCCCC(=O)N21 (mixture of isomers) [Example 27, (14′R)-23′-fluoro-14′-methyl-8′-oxa-13′-azaspiro[morpholine-3,16′-tetracyclo[17.3.1.0^2,70.0^13,17]tricosane]-1′(23′),2′(7′),3′,5′,19′,21′-hexaene-5, 12′-dione]
EC50 [1]: 100 to 1000 nM | ring closure, yield of all isomers (from C[C@@H]1CC2(COCC(=O)N2)C(Cc2cccc(-c3ccccc3OCCCC(=O)O)c2F)N1, amide bond, HATU, MeCN, 2.3 mM, 25.0 °C, 2.5 h): 84.9%

O=C1COC[C@@]2(CCCN3C(=O)OCCOc4ccccc4-c4cccc(c4F)C[C@H]32)N1 (relative stereo)
ring closure, yield of all isomers (from O=C1COC[C@@]2(CCCN[C@H]2Cc2cccc(-c3ccccc3OCCO)c2F)N1, other bond, triphosgene, MeCN, 15.7 mM, 80.0 °C, 20.5 h): 3.6%

O=C1N[C@]2(CCN3C(=O)CCOc4ccccc4[C@H]4CC[C@H](CC4)OC[C@H]32)COC1F (relative stereo)
ring closure, yield of all isomers (from O=C(O)CCOc1ccccc1[C@H]1CC[C@@H](OC[C@@H]2NCC[C@@]23COC(F)C(=O)N3)CC1, amide bond, HATU/DIPEA, acetonitrile, 3.66 mM, 3.0 h): 46.1%

O=C1COC[C@@]2(CCN3C(=O)CCOc4cccc(F)c4[C@H]4CC[C@H](CC4)OC[C@H]32)N1 (relative stereo)
ring closure, yield of all isomers (from O=C(O)CCOc1cccc(F)c1[C@H]1CC[C@@H](OC[C@@H]2NCC[C@@]23COCC(=O)N3)CC1, amide bond, HATU/DIPEA, acetonitrile, 5.42 mM, 25.0 °C, 4.0 h): 46.4%
